Measured values published in ChEMBL document CHEMBL5727767, “1,2-substituted cyclopentanes as orexin receptor antagonists” (2020).

What was measured:
[1] = target: T1, Orexin/Hypocretin receptor type 1 (Homo sapiens, UniProt O43613); format: cell-based
T1 sequence (O43613 whole entry): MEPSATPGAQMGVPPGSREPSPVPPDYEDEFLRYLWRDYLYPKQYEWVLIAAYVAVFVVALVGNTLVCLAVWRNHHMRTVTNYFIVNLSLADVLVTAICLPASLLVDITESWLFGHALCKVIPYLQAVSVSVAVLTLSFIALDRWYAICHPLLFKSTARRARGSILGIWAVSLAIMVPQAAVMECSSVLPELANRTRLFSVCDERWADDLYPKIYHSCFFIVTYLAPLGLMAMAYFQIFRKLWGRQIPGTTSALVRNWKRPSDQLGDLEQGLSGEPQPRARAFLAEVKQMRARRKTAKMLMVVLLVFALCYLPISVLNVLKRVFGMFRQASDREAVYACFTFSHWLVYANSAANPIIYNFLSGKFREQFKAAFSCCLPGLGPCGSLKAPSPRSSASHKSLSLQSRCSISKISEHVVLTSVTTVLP

Orexin receptor type 2 = target: T2, Orexin receptor type 2 (Homo sapiens, UniProt O43614); format: cell-based
T2 sequence (O43614 whole entry): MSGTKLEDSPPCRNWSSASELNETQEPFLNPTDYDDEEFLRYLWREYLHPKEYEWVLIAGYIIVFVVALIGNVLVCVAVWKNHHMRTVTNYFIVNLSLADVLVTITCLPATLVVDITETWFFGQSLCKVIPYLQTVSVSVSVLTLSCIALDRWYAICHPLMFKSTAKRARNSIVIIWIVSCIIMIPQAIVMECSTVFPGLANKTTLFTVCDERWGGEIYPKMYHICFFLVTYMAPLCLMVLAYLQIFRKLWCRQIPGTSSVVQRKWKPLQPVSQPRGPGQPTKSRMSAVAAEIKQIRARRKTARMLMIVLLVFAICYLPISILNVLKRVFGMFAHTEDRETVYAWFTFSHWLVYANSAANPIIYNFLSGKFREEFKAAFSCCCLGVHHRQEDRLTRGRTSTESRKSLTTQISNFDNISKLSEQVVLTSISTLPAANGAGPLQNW

## Cc1ccc(-n2nccn2)c(C(=O)N[C@@H]2CCC[C@@H]2Nc2ccc(Cl)cn2)c1
[1]
  IC50: 270 nM
Orexin receptor type 2
  IC50: > 10000 nM
